*1 amine or outer side, *2 acyl side, *3 side chain or, on linkers, in order; H or OH if unused. Where a SMILES comes first, the peptide text is derived from it. Bridges are numbered along the chain shown (N, C = ends). [ ]: non-standard residue; d: D form. The star is where a group is joined. C20 diacid = O=C(O)CCCCCCCCCCCCCCCCCCC(=O)*; Pro(4R-NH2) = N[C@H]1CN[C@H](C(=O)O)C1; γGlu = O=C(O)[C@H](CCC(=O)[*:2])N[*:1]; Hyp = O=C(O)[C@@H]1C[C@@H](O)CN1; NMeI = CC[C@H](C)[C@H](NC)C(=O)O; Aad = N[C@@H](CCCC(=O)O)C(=O)O; Sar = CNCC(=O)O
What was measured:
[1] = Assessment of chemical stability (RP-HPLC normalized purity); type: physicochemical; conditions: 7 days, 40° C., Table 1; for Normalized purity after 7 days, 40° C., pH 4: pH 4, 0.2 mg/ml; for Normalized purity after 7 days, 40° C., pH 7.5: pH 7.5, 0.2 mg/ml; for Normalized purity after 7 days, 40° C., pH 9: pH 9, 0.2 mg/ml; for Normalized purity after 7 days, 40° C., pH 6: pH 6, 0.2 mg/ml
Protocol: Samples of each test peptide were dissolved in MilliQ™ water, and the pH of the solution was adjusted to pH 4, pH 6, pH 7.5 or pH 9, respectively, using either HCl or NaOH. The final peptide concentration was 0.2 mg/ml. Samples were placed in glass vials and incubated at 40° C. The samples were analyzed by RP-HPLC on a C8 column with gradient elution using an ammonium formate/water eluent system, or on a C18 column with gradient elution using a trifluoroacetic acid/water eluent system. The area-percentage (area-%) of the main peak after incubation time T=t (relative to time T=0) was determined by UV spectroscopy at 220 nm.
The purity was first determined as follows:
Purity(area-%)=(area of main peak/total area of all peaks)×100.
The purity was then normalized between time points by setting purity at time 0 (T=0) to 100 for each pH value for a given peptide, as follows:
Normalised area-% at time t (T=t)=[area-%(T=t)/area-%(T=0)]×100.
The normalized purity values in Table 1 were determined after 7 days of incubation.
The chemical stability assessment described in Example 6 was repeated for four pairs of compounds, each differing only by the presence or absence of an Asn-Asn (N—N) doublet at positions 21 and 22.

[2] = Assessment of physical stability (Thioflavin T fibrillation); type: physicochemical; set-up: key: FND = fibrillation not detected; FD = fibrillation detected; conditions: 1 mg/ml, 40° C., ThT; for Fibrillation pH 4.0 (Ac): 50 mM acetate buffer pH 4.0, 96 hours; for Fibrillation pH 7.0 (His): 50 mM histidine buffer pH 7.0, 96 hours; for Fibrillation pH 7.0 (Phos.): 50 mM phosphate buffer pH 7.0, 96 hours
Protocol: Solutions containing (i) 1 mg/ml of test peptide, 40 μM ThT and 50 mM phosphate (Ph) buffer (pH 7.0), (ii) 1 mg/ml of test peptide, 40 μM ThT and 50 mM histidine (His) buffer (pH 7.0), and (iii) 1 mg/ml of test peptide, 40 μM ThT and 50 mM acetate (Ac) buffer (pH 4.0), were loaded in a 96-well black fluorescence plate (clear bottom) in triplicate. Data were collected at fixed intervals of 10 min, each preceded by 300 s of automixing (agitation), over a period of 96 hours at 40° C. Physical stability, expressed as lag-time of fibril formation (in hours), was defined as the intersection between two linear regressions representing the initial stable phase and the growth phase.

SMILES	Normalized purity after 7 days, 40° C., pH 4 [1]	Normalized purity after 7 days, 40° C., pH 7.5 [1]	Normalized purity after 7 days, 40° C., pH 9 [1]	Fibrillation pH 4.0 (Ac) [2]	Fibrillation pH 7.0 (His) [2]	Fibrillation pH 7.0 (Phos.) [2]	Normalized purity after 7 days, 40° C., pH 6 [1]
CC[C@H](C)[C@@H](C(=O)N[C@@H](CC(C)C)C(=O)N[C@@H](CO)C(=O)N[C@@H](CO)C(=O)N[C@H](C(=O)N[C@@H](CC(N)=O)C(=O)N[C@H](C(=O)NCC(=O)N[C@@H](CO)C(=O)N[C@@H](CC(N)=O)C(=O)N[C@H](C(=O)N1C[C@H](N)C[C@H]1C(N)=O)[C@@H](C)O)C(C)C)[C@@H](C)O)N(C)C(=O)[C@H](C)NC(=O)CN(C)C(=O)[C@H](Cc1ccccc1)NC(=O)[C@H](CC(N)=O)NC(=O)[C@H](CC(N)=O)NC(=O)[C@H](CO)NC(=O)[C@H](CO)NC(=O)[C@H](CCCNC(=N)N)NC(=O)[C@H](Cc1c[nH]cn1)NC(=O)[C@H](CC(C)C)NC(=O)[C@H](Cc1ccccc1)NC(=O)[C@H](Cc1c[nH]cn1)NC(=O)[C@H](C)NC(=O)[C@H](CC(C)C)NC(=O)[C@H](CCCNC(=N)N)NC(=O)[C@H](CCC(N)=O)NC(=O)[C@@H](NC(=O)[C@H](C)NC(=O)[C@@H]1CSSC[C@H](NC(=O)[C@H](CCCNC(=N)N)NC(=O)CC[C@H](NC(=O)CCCCCCCCCCCCCCCCCCC(=O)O)C(=O)O)C(=O)N[C@@H](CC(N)=O)C(=O)N[C@@H]([C@@H](C)O)C(=O)N[C@@H](C)C(=O)N[C@@H]([C@@H](C)O)C(=O)N1)[C@@H](C)O [Compound 5, [19CD]-isoGlu-R-C( )-NTAT-C( )-ATQRLAHFLHRSSNNF-Gly(Me)-A-Ile(Me)-LSSINVGSNT-Apr-NH2] ({C20 diacid-γGlu}-RCNTATCATQRLAHFLHRSSNNF[Sar]A[NMeI]LSSTNVGSNT[Pro(4R-NH2)]-NH2; disulfide 2-7)	B (B = 70-90%)	C (C = <70%)	C (C = <70%)	FND	FND	FND	–
CC[C@H](C)[C@@H](C(=O)N[C@@H](CC(C)C)C(=O)N[C@@H](CO)C(=O)N[C@@H](CO)C(=O)N[C@H](C(=O)N[C@@H](CCC(=O)O)C(=O)N[C@H](C(=O)NCC(=O)N[C@@H](CO)C(=O)N[C@@H](CCC(=O)O)C(=O)N[C@H](C(=O)N1CCC[C@H]1C(N)=O)[C@@H](C)O)C(C)C)[C@@H](C)O)N(C)C(=O)[C@H](C)NC(=O)CN(C)C(=O)[C@H](Cc1ccccc1)NC(=O)[C@H](CCCNC(=N)N)NC(=O)[C@H](Cc1c[nH]cn1)NC(=O)[C@H](CC(C)C)NC(=O)[C@H](Cc1ccccc1)NC(=O)[C@H](Cc1c[nH]cn1)NC(=O)[C@H](C)NC(=O)[C@H](CC(C)C)NC(=O)[C@H](CCCNC(=N)N)NC(=O)[C@H](CCC(N)=O)NC(=O)[C@@H](NC(=O)[C@H](C)NC(=O)[C@@H]1CSSC[C@H](NC(=O)[C@H](CCCNC(=N)N)NC(=O)CC[C@H](NC(=O)CCCCCCCCCCCCCCCCCCC(=O)O)C(=O)O)C(=O)N[C@@H](CC(N)=O)C(=O)N[C@@H]([C@@H](C)O)C(=O)N[C@@H](C)C(=O)N[C@@H]([C@@H](C)O)C(=O)N1)[C@@H](C)O [Compound 14, [19CD]-isoGlu-R-C( )-NTAT-C( )-ATQRLAHFLHRF-Gly(Me)-A-Ile(Me)-LSSTEVGSETP-NH2] ({C20 diacid-γGlu}-RCNTATCATQRLAHFLHRF[Sar]A[NMeI]LSSTEVGSETP-NH2; disulfide 2-7)	A (A = >90%)	A (A = >90%)	A (A = >90%)	FND	FD	FND	A (A = >90%)
CC[C@H](C)[C@@H](C(=O)N[C@@H](CC(C)C)C(=O)N[C@@H](CO)C(=O)N[C@@H](CO)C(=O)N[C@H](C(=O)N[C@@H](CCC(=O)O)C(=O)N[C@H](C(=O)NCC(=O)N[C@@H](CO)C(=O)N[C@@H](CCC(=O)O)C(=O)N[C@H](C(=O)N1CCC[C@H]1C(N)=O)[C@@H](C)O)C(C)C)[C@@H](C)O)N(C)C(=O)[C@H](C)NC(=O)CN(C)C(=O)[C@H](Cc1ccccc1)NC(=O)[C@H](CO)NC(=O)[C@H](CO)NC(=O)[C@H](CCCNC(=N)N)NC(=O)[C@H](Cc1c[nH]cn1)NC(=O)[C@H](CC(C)C)NC(=O)[C@H](Cc1ccccc1)NC(=O)[C@H](Cc1c[nH]cn1)NC(=O)[C@H](C)NC(=O)[C@H](CC(C)C)NC(=O)[C@H](CCCNC(=N)N)NC(=O)[C@H](CCC(N)=O)NC(=O)[C@@H](NC(=O)[C@H](C)NC(=O)[C@@H]1CSSC[C@H](NC(=O)[C@H](CCCNC(=N)N)NC(=O)CC[C@H](NC(=O)CCCCCCCCCCCCCCCCCCC(=O)O)C(=O)O)C(=O)N[C@@H](CC(N)=O)C(=O)N[C@@H]([C@@H](C)O)C(=O)N[C@@H](C)C(=O)N[C@@H]([C@@H](C)O)C(=O)N1)[C@@H](C)O [Compound 2, [19CD]-isoGlu-R-C( )-NTAT-C( )-ATQRLAHFLHRSSF-Gly(Me)-A-Ile(Me)-LSSTEVGSETP-NH2] ({C20 diacid-γGlu}-RCNTATCATQRLAHFLHRSSF[Sar]A[NMeI]LSSTEVGSETP-NH2; disulfide 2-7)	A (A = >90%)	A (A = >90%)	B (B = 70-90%)	FND	FD	FND	–
CC[C@H](C)[C@@H](C(=O)N[C@@H](CC(C)C)C(=O)N[C@@H](CO)C(=O)N[C@@H](CO)C(=O)N[C@H](C(=O)N[C@@H](CCC(=O)O)C(=O)N[C@H](C(=O)NCC(=O)N[C@@H](CO)C(=O)N[C@@H](CCCC(=O)O)C(=O)N[C@H](C(=O)N1C[C@H](O)C[C@H]1C(N)=O)[C@@H](C)O)C(C)C)[C@@H](C)O)N(C)C(=O)[C@H](C)NC(=O)CN(C)C(=O)[C@H](Cc1ccccc1)NC(=O)[C@H](CO)NC(=O)[C@H](CO)NC(=O)[C@H](CCCNC(=N)N)NC(=O)[C@@H](NC(=O)[C@H](CC(C)C)NC(=O)[C@H](Cc1ccccc1)NC(=O)[C@H](Cc1c[nH]cn1)NC(=O)[C@H](C)NC(=O)[C@H](CC(C)C)NC(=O)[C@H](CCCNC(=N)N)NC(=O)[C@H](CCC(=O)O)NC(=O)[C@@H](NC(=O)[C@H](C)NC(=O)[C@@H]1CSSC[C@H](NC(=O)[C@H](CCCNC(=N)N)NC(=O)CC[C@H](NC(=O)CCCCCCCCCCCCCCCCCCC(=O)O)C(=O)O)C(=O)NCC(=O)N[C@@H]([C@@H](C)O)C(=O)N[C@@H](C)C(=O)N[C@@H]([C@@H](C)O)C(=O)N1)[C@@H](C)O)[C@@H](C)O [Compound 12, [19CD]-isoGlu-R-C( )-GTAT-C( )-ATERLAHFLTRSSF-Gly(Me)-A-Ile(Me)-LSSTEVGS-Aad-T-Hyp-NH2] ({C20 diacid-γGlu}-RCGTATCATERLAHFLTRSSF[Sar]A[NMeI]LSSTEVGS[Aad]T[Hyp]-NH2; disulfide 2-7)	A (A = >90%)	B (B = 70-90%)	B (B = 70-90%)	FND	FD	FD	A (A = >90%)

From patent publication US20210115104A1, “AMYLIN ANALOGUES” (Zealand Pharma A/S, priority 2015, published 2021)
